Results: patent US6855730B2, “3-methylidenyl-2-indolinone modulators of protein kinase” (Sugen, Inc., priority 1998, dated 2005)

Key:
EGFR = EGFR (Homo sapiens, UniProt P00533); test: Biochemical EGFR assay (ELISA, A431 cell lysate); design: A431 cell lysate (Screening Lab, SUGEN, Inc.); host or cells: A431; details: read-out: bio EGFr IC50
In short: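 EGFR captured from A431 cell lysate onto anti-EGFR-coated plates, then incubated with test compound for 30 min at room temperature. Tyrosine phosphorylation with ATP/MnCl2 was stopped with EDTA after 5 min and detected by anti-phosphotyrosine ELISA with peroxidase/ABTS read-out.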

[1] = target: T1, 3T3 cell line genetically engineered to express human PDGF-R (Homo sapiens, UniProt P09619); test: PDGF-induced BrdU incorporation assay; assay type: cell-based; details: read-out: PDGF-Induced BrdU Incorp. IC50
T1 construct: expressed in transfected cells; host or cells: 3T3
Procedure: The general procedure is as follows: a compound is introduced to cells expressing the test kinase, either naturally or recombinantly, for a selected period of time after which, if the test kinase is a receptor, a ligand known to activate the receptor is added. […] The cellular/biologic assays described herein measure the amount of DNA made in response to activation of a test kinase, which is a general measure of a proliferative response. The general procedure for this assay is as follows: a compound is introduced to cells expressing the test kinase, either naturally or recombinantly, for a selected period of time after which, if the test kinase is a receptor, a ligand known to activate the receptor is added. After incubation at least overnight, a DNA labeling reagent such as Bromodeoxyuridine (BrdU) or 3H-thymidine is added. The amount of labeled DNA is detected with either an anti-BrdU antibody or by measuring radioactivity and is compared to control cells not contacted with a test compound.
PDGF-Induced BrdU Incorporation Assay
Protocol • (1) Cells are seeded at 8000 cells/well in DMEM, 10% CS, 2mM Gln in a 96 well plate. […] The negative control wells receive serum free DMEM with 0.1% BSA only, the positive control cells receive the ligand (PDGF) but no test compound. […] FixDenat solution is added (50 μ/well) and the plates are incubated at room temperature for 45 minutes on a plate shaker. • (6) The FixDenat solution is thoroughly removed by decanting and tapping the inverted plate on a paper towel. Milk is added (5% dehydrated milk in PBS, 200 μ/well) as a blocking solution and the plate is incubated for 30 minutes at room temperature on a plate shaker. • (7) The blocking solution is removed by decanting and the wells are washed once with PBS. Anti-BrdU-POD solution (1:100 dilution in PBS, 1% BSA) is added (100 μl/well) and the plate is incubated for 90 minutes at room temperature on a plate shaker. • (8) The antibody conjugate is thoroughly removed by decanting and rinsing the wells 5 times with PBS, and the plate is dried by inverting and tapping on a paper towel. • (9) TMB substrate solution is added (100 μl/well) and incubated for 20 minutes at room temperature on a plate shaker until color development is sufficient for photometric detection. • (10) The absorbance of the samples are measured at 410 nm (in “dual wavelength” mode with a filter reading at 490 nm, as a reference wavelength) on a Dynatech ELISA plate reader.

src protein kinase = target: T2, src protein kinase (Gallus gallus, UniProt P00523); test: Biochemical SRC assay (phosphorylation of biotinylated peptide); details: read-out: bio src IC50
T2 construct: host or cells: Schizosaccharomyces pombe SP200
Procedure: This assay is used to determine src protein kinase activity measuring phosphorylation of a biotinylated peptide as the readout.
Yeast transformed with src (Sugen, Inc., Redwood City, Calif.). • b. Cell lysates: Yeast cells expressing src are pelleted, washed once with water, re-pelleted and stored at −80° C. until use. • c. N-terminus biotinylated [sequence] is prepared by standard procedures well known to those skilled in the art. • d. DMSO: Sigma, St. Louis, Mo. • e. […] Vecastain ELITE ABC reagent: Vector, Burlingame, Calif. • h. […] S. Pombe strain SP200 (h-s leul.32 ura4 ade210) is grown as described and transformations are pRSP expression plasmids are done by the lithium acetate method (Superti-Furga, supra). Cells are grown in the presence of 1 μM thiamine to repress expression from the nmtl promoter or in the absence of thiamine to induce expression. • i. […] Turbo TMB-ELISA peroxidase substrate: Pierce Chemical.
Buffer Solutions • a. PBS (Dulbecco's Phosphate-Buffered Saline): GIBCO PBS, GIBCO Cat. #450-1300EB. • b. Blocking Buffer: 5% Non-fat milk (Carnation) in PBS. • c. Carbonate Buffer: Na2CO4 from Fischer, Cat. # S495, make up 100 mM stock solution. • d. Kinase Buffer: 1.0 ml (from 1M stock solution) MgCl2, 0.2 ml (from a 1M stock solution) MnCl2, 0.2 ml (from a 1M stock solution) DTT, 5.0 ml (from a 1M stock solution) HEPES, 0.1 ml TX-100, bring to 10 ml total volume with MilliQ H2O. • e. […] NaCl: Fischer Cat. # S271-10, Make up 5M stock solution with MilliQ H2O. • i. […] MgCl2: Fischer Cat. # M33-500, make up 1M stock solution with MilliQ H2O. • k. […] MnCl2: Fischer Cat. # M87-100, make up 1M stock solution with MilliQ H2O. • n. DTT: -Fischer Cat. # BP172-5. • o. […] Kinase Reaction Mixture: Amount per assay plate (100 wells): 1.0 ml Kinase Buffer, 200 λg GST-ζ, bring to final volume of 8.0 ml with MilliQ H2O. • q. […] Then add 1 drop of reagent B. Put tube on orbital shaker at room temperature and mix for 30 minutes.
Preparation of src Coated ELISA Plate. • 1. Coat ELISA plate with 0.5 μg/well anti-src mab in 100 μl of pH 9.6 sodium carbonate buffer, hold at 40° C. overnight. • 2. Wash wells once with PBS. • 3. […] Wash plate 5× with PBS. • 5. Add 10 μg/well of src transformed yeast lysates diluted in Lysis Buffer (0.1 ml total volume per well). (Amount of lysate may vary between batches.) Shake plate for 20 minutes at room temperature.
Preparation of Phosphotyrosine Antibody-coated ELISA Plate. • 1. 4G10 plate: coat 0.5 μg/well 4G10 in 100 μl PBS overnight at 4° C. and block with 150 μl of 5% milk in PBS for 30 minutes at room temperature.
Kinase Assay Procedure. • 1. Remove unbound proteins from plates and wash plates 5× with PBS. • 2. […] Wash plate 5× with TBST. • 10. Incubate with Vectastain ELITE ABC reagent (100 μl/well) for 30 min. at room temperature. • 11. Wash the wells 5× with TBST. • 12. Develop with Turbo TMB.

Chain of EGFR (P00533 25-1210): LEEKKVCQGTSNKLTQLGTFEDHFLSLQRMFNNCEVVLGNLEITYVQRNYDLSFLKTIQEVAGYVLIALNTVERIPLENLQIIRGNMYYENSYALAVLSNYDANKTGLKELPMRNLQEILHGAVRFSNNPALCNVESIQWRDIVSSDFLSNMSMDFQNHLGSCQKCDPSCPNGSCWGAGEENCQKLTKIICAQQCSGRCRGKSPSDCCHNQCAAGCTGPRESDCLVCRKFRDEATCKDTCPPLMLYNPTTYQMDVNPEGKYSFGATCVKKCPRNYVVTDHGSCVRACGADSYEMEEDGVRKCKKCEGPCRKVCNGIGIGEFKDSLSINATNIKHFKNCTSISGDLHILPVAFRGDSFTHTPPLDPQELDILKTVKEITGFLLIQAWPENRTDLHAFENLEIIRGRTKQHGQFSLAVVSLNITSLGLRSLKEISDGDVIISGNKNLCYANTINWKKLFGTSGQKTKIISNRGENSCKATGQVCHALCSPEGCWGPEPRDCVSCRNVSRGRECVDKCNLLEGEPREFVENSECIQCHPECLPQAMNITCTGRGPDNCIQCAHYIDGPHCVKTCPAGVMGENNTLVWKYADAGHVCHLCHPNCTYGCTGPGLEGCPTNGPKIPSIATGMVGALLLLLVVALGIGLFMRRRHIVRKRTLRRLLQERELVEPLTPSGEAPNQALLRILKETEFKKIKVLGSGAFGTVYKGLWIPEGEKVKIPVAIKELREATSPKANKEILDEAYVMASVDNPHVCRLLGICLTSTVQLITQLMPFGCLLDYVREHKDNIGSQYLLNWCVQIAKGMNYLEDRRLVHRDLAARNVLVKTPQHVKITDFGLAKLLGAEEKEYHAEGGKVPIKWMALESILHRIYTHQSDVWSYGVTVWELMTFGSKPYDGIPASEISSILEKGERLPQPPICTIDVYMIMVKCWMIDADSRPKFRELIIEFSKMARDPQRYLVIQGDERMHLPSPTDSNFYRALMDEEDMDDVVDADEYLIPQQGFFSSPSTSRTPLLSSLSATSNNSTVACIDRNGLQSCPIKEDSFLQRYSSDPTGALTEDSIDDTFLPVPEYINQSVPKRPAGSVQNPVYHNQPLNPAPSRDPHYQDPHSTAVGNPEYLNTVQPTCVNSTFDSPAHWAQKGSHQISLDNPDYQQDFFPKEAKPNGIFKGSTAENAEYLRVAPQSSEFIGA

Structure (SMILES): CCOC(=O)c1c(C)[nH]c(/C=C2\C(=O)Nc3ccc(Br)cc32)c1CCC(=O)O [Compound 114, 5-(5-Bromo-2-oxo-1,2-dihydroindol-3-ylidenemethyl)-4-(2-carboxyethyl)-2-methyl-1H-pyrrole-3-carboxylic acid ethyl ester]
- IC50 (EGFR): > 100 µM

Structure (SMILES): Cc1cc(CCC(=O)O)c(/C=C2\C(=O)Nc3ccc(Br)cc32)[nH]1 [Compound 116, 3-[2-(5-Bromo-2-oxo-1,2-dihydroindol-3-ylidenemethyl)-5-methyl-1H-pyrrol-3-yl]-propionic acid]
- IC50 (EGFR): > 100 µM

Structure (SMILES): COc1c(C(C)C)cc(/C=C2/C(=O)Nc3ccccc32)cc1C(C)C [Example 1, 3-(3,5-Diisopropyl-4-methoxybenzylidene)-1,3-dihydroindol-2-one]
- IC50 (EGFR): > 100 µM

Structure (SMILES): COc1c(C(C)C)cc(/C=C2/C(=O)Nc3ccc(Cl)cc32)cc1C(C)C [Example 2, 5-Chloro-3-(3,5-diisopropyl-4-methoxybenzylidene)-1,3-dihydroindol-2-one]
- IC50 (EGFR): > 100 µM

Structure (SMILES): O=C1Nc2ccc(N=Cc3cc4ccccc4[nH]3)cc2C1=Cc1cc2ccccc2[nH]1 [Example 171, 3-(1H-indol-2-ylmethylene)-5-[(1H-indol-2-ylmethylene)-amino]-1,3-dihydroindol-2-one]
- IC50 (EGFR): > 100 µM

Structure (SMILES): NS(=O)(=O)c1ccc2c(c1)/C(=C/c1c[nH]c3ccccc13)C(=O)N2 [Example 172, 3-(1H-Indol-3-ylmethylene)-2-oxo-2,3-dihydro-1H-indole-5-sulfonic acid amide]
- IC50 (EGFR): > 100 µM

Structure (SMILES): CNS(=O)(=O)c1ccc2c(c1)/C(=C/c1cc3ccccc3[nH]1)C(=O)N2 [Example 173, 3-(1H-Indol-2-ylmethylene)-2-oxo-2,3-dihydro-1H-indole-5-sulfonic acid methylamide]
- IC50 (EGFR): 22 µM

Structure (SMILES): O=C1Nc2ccc(C(=O)O)cc2/C1=C/c1c[nH]c2ccccc12 [Example 174, 3-(1H-Indol-3-ylmethylene)-2-oxo-2,3-dihydro-1H-indole-5-carboxylic acid]
- IC50 (EGFR): > 100 µM

Structure (SMILES): O=C1Nc2ccc(C(=O)O)cc2/C1=C/c1ccc2[nH]ccc2c1 [Example 177, 3-(1H-Indol-5-ylmethylene)-2-oxo-2,3-dihydro-1H-indole-5-carboxylic acid]
- IC50 (EGFR): 6.13 µM

Structure (SMILES): Nc1ccc2c(c1)/C(=C/c1ccc3[nH]ccc3c1)C(=O)N2 [Example 179, 5-Amino-3-(1H-indol-5-ylmethylene)-1,3-dihydro-indol-2-one]
- IC50 (EGFR): > 100 µM

Structure (SMILES): Cc1c(/C=C2\C(=O)Nc3ccc(N)cc32)[nH]c2ccccc12 [Example 180, 5-Amino-3-(3-methyl-1H-indol-2-ylmethylene)-1,3-dihydroindol-2-one]
- IC50 (EGFR): > 100 µM

Structure (SMILES): Cc1[nH]c2ccccc2c1/C=C1\C(=O)Nc2ccc(C(=O)O)cc21 [Example 182, 3-(2-Methyl-1H-indol-3-ylmethylene)-2-oxo-2,3-dihydro-1H-indole-5-carboxylic acid]
- IC50 (EGFR): > 100 µM

Structure (SMILES): Cc1[nH]c2ccccc2c1/C=C1\C(=O)Nc2ccc(N)cc21 [Example 187, 5-Amino-3-(2-methyl-1H-indol-3-ylmethylene)-1,3-dihydroindol-2-one]
- IC50 (EGFR): > 100 µM

Structure (SMILES): O=C(O)CCc1c(/C=C2\C(=O)Nc3ccccc32)[nH]c2c1CCCC2 [Example 190, 3-[2-(2-Oxo-1,2-dihydro-indol-3-ylidenemethyl)-4,5,6,7-tetrahydro-1H-indol-3-yl]-propionic acid]
- IC50 [1]: 2.9 µM
- IC50 (src protein kinase): 0.11 µM

Structure (SMILES): O=C(O)CCc1c(/C=C2\C(=O)Nc3ccc(Cl)cc32)[nH]c2c1CCCC2 [Example 191, 3-[2-(5-Chloro-2-oxo-1,2-dihydroindol-3-ylidenemethyl)-4,5,6,7-tetrahydro-1H-indol-3-yl]-propionic acid]
- IC50 (EGFR): > 100 µM
- IC50 [1]: 1.1 µM
- IC50 (src protein kinase): 12 µM

Structure (SMILES): O=C(O)CCc1c(/C=C2\C(=O)Nc3ccc(Br)cc32)[nH]c2c1CCCC2 [Example 192, 3-[2-(5-Bromo-2-oxo-1,2-dihydroindol-3-ylidenemethyl)-4,5,6,7-tetrahydro-1H-indol-3yl]-propionic acid]
- IC50 [1]: 1.4 µM
- IC50 (src protein kinase): 10.5 µM

Structure (SMILES): Cc1cccc2c1/C(=C/c1[nH]c3c(c1CCC(=O)O)CCCC3)C(=O)N2 [Example 193, 3-[2-(4-Methyl-2-oxo-1,2-dihydroindol-3-ylidenemethyl)-4,5,6,7-tetrahydro-1H-indol-3-yl]-propionic acid]
- IC50 (EGFR): 90.7 µM
- IC50 [1]: 13.5 µM
- IC50 (src protein kinase): 48.6 µM

Structure (SMILES): Cc1ccc2c(c1)/C(=C/c1[nH]c3c(c1CCC(=O)O)CCCC3)C(=O)N2 [Example 194, 3-[2-(5-Methyl-2-oxo-1,2-dihydroindol-3-ylidenemethyl)-4,5,6,7-tetrahydro-1H-indol-3-yl]-propionic acid]
- IC50 [1]: 14.2 µM
- IC50 (src protein kinase): 20.6 µM

Structure (SMILES): COc1ccc2c(c1)NC(=O)/C2=C\c1[nH]c2c(c1CCC(=O)O)CCCC2 [Example 196, 3-[2-(6-Methoxy-2-oxo-1,2-dihydroindol-3-ylidenemethyl)-4,5,6,7-tetrahydro-1H-indol-3-yl]-propionic acid]
- IC50 [1]: 3 µM
- IC50 (src protein kinase): 11.3 µM

Structure (SMILES): CN(C)C(=O)CCc1c(/C=C2\C(=O)Nc3ccccc32)[nH]c2c1CCCC2 [Example 197, N,N-Dimethyl-3-[2-(2-oxo-1,2-dihydroindol-3-ylidenemethyl)-4,5,6,7-tetrahydro-1H-indol-3-yl]-propionamide]
- IC50 (EGFR): > 100 µM
- IC50 [1]: 4.9 µM

Structure (SMILES): NC(=O)CCc1c(/C=C2\C(=O)Nc3ccccc32)[nH]c2c1CCCC2 [Example 199, 3-[2-(2-Oxo-1,2-dihydroindol-3-ylidenemethyl)-4,5,6,7-tetrahydro-1H-indol-3-yl]-propionamide]
- IC50 (EGFR): > 100 µM
- IC50 [1]: 3.5 µM

Structure (SMILES): O=C1Nc2ccccc2/C1=C/c1[nH]c2c(c1CCC(=O)N1CCOCC1)CCCC2 [Example 200, 3-[3-(3-Morpholin-4-yl-3-oxopropyl)-4,5,6,7-tetrahydro-1H-indol-2-ylmethylene]-1,3-dihydroindol-2-one]
- IC50 (EGFR): > 100 µM
- IC50 [1]: 8.6 µM

Structure (SMILES): CNC(=O)CCc1c(/C=C2\C(=O)Nc3ccccc32)[nH]c2c1CCCC2 [Example 201, N-Methyl-3-[2-(2-oxo-1,2-dihydroindol-3-ylidenemethyl)-4,5,6,7-tetrahydro-1H-indol-3-yl]-propionamide]
- IC50 (EGFR): > 100 µM
- IC50 [1]: 3.9 µM

Structure (SMILES): O=C(O)CCc1c(/C=C2\C(=O)Nc3ncccc32)[nH]c2c1CCCC2 [Example 203, 3-[2-(2-Oxo-1,2-dihydropyrrolo[2,3-b]pyridin-3-ylidenemethyl)-4,5,6,7-tetrahydro-1H-indol-3-yl]-propionic acid]
- IC50 (EGFR): > 12.5 µM

Structure (SMILES): COc1cccc(-c2ccc3c(c2)NC(=O)/C3=C\c2[nH]c3c(c2CCC(=O)O)CCCC3)c1 [Example 204, 3-{2-[6-(3-Methoxyphenyl)-2-oxo-1,2-dihydro-indol-3-ylidenemethyl]-4,5,6,7-tetrahydro-1H-indol-3-yl}-propionic acid]
- IC50 (EGFR): 7.09 µM
- IC50 (src protein kinase): 4.44 µM

Structure (SMILES): COc1ccc(-c2ccc3c(c2)NC(=O)/C3=C\c2[nH]c3c(c2CCC(=O)O)CCCC3)cc1 [Example 205, 3-{2-[6-(4-Methoxyphenyl)-2-oxo-1,2-dihydro-indol-3-ylidenemethyl]-4,5,6,7-tetrahydro-1H-indol-3-yl}-propionic acid]
- IC50 (EGFR): 16.2 µM
- IC50 (src protein kinase): 1.34 µM

Structure (SMILES): O=C(O)CCc1c(/C=C2\C(=O)Nc3cc(-c4ccccc4)ccc32)[nH]c2c1CCCC2 [Example 206, 3-[2-(2-oxo-6-phenyl-1,2-dihydroindol-3-ylidenemethyl)-4,5,6,7-tetrahydro-1H-indol-3-yl]-propionic acid]
- IC50 (src protein kinase): 0.74 µM

Structure (SMILES): CC(C)NS(=O)(=O)c1ccc2c(c1)C(=Cc1[nH]c3c(c1CCC(=O)O)CCCC3)C(=O)N2 [Example 208, 3-[2-(5-Isopropylaminosulfonyl-2-oxo-1,2-dihydroindol-3-ylidenemethyl)-4,5,6,7-tetrahydro-1H-indol-3-yl]-propionic acid]
- IC50 (EGFR): > 100 µM
- IC50 (src protein kinase): 1.84 µM

Structure (SMILES): O=C(O)CCc1ccccc1/C=C1/C(=O)Nc2ccccc21 [Example 214, 3-[2-(2-Oxo-1,2-dihydroindol-3-ylidenemethyl)-phenyl]-propionic acid]
- IC50 (EGFR): > 100 µM
- IC50 (src protein kinase): > 100 µM

Structure (SMILES): Cc1c[nH]c(/C=C2\C(=O)Nc3ccc(Cl)cc32)c1CCC(=O)O [Example 216, 3-[2-(5-Chloro-2-oxo-1,2-dihydroindol-3-ylidenemethyl)-4-methyl-1H-pyrrol-3-yl]-propionic acid]
- IC50 (EGFR): > 100 µM
- IC50 (src protein kinase): 4.75 µM

Structure (SMILES): Cc1c[nH]c(/C=C2\C(=O)Nc3cccc(C)c32)c1CCC(=O)O [Example 218, 3-[2-(4-Methyl-2-oxo-1,2-dihydroindol-3-ylidenemethyl)-4-methyl-1H-pyrrol-3-yl]-propionic acid]
- IC50 [1]: 24.8 µM

Structure (SMILES): Cc1c[nH]c(/C=C2\C(=O)Nc3ccc(Br)cc32)c1CCC(=O)O [Example 220, 3-[2-(5-Bromo-2-oxo-1,2-dihydroindol-3-ylidenemethyl)-4-methyl-1H-pyrrol-3-yl]-propionic acid]
- IC50 [1]: 8.5 µM
- IC50 (src protein kinase): 6.48 µM

Structure (SMILES): COc1cccc(-c2ccc3c(c2)NC(=O)/C3=C\c2[nH]cc(C)c2CCC(=O)O)c1 [Example 223, 3-{2-[6-(3-Methoxyphenyl)-2-oxo-1,2-dihydro-indol-3-ylidenemethyl]-4-methyl-1H-pyrrol-3-yl}-propionic acid]
- IC50 (EGFR): 13.3 µM
- IC50 (src protein kinase): 1.06 µM

Structure (SMILES): CCOc1cccc(-c2ccc3c(c2)NC(=O)/C3=C\c2[nH]cc(C)c2CCC(=O)O)c1 [Example 224, 3-{2-[6-(3-Ethoxyphenyl)-2-oxo-1,2-dihydro-indol-3-ylidenemethyl]-4-methyl-1H-pyrrol-3-yl}-propionic acid]
- IC50 (src protein kinase): 1.16 µM
